In the NIST ThermoML archive (doi:10.1016/j.jct.2012.11.005):
Numbers after ± are expanded uncertainties.

Key:
[1] = 101.33 kPa, Liquid, Vibrating tube method
[2] = refractive index (Na D-line) (dimensionless); conditions: 293.15 K; 101.33 kPa; Liquid; Standard Abbe refractometry
[3] = Boiling temperature at pressure P; conditions: Liquid, Closed cell (Static) method

CCCCO [butan-1-ol]
Conditions | mass density [kg/m3]
[1], 298.15 K | 805.851 ± 0.16

Conditions | refractive index
[2] | 1.39705 ± 0.0007

CC(C)OC(C)C [diisopropyl ether]
Conditions | mass density [kg/m3]
[1], 298.15 K | 718.511 ± 0.25

Conditions | refractive index
[2] | 1.36547 ± 0.00072

CO [methanol]
Conditions | Boiling temperature at pressure P [°C] | mass density [kg/m3]
[1], 298.15 K | – | 786.624 ± 0.16
[3], 19.97 kPa | 28.22 ± 0.48 | –
[3], 24.04 kPa | 32.00 ± 0.46 | –
[3], 29.98 kPa | 36.41 ± 0.44 | –
[3], 39.04 kPa | 42.00 ± 0.43 | –
[3], 50.01 kPa | 47.57 ± 0.42 | –
[3], 60.94 kPa | 52.00 ± 0.42 | –
[3], 69.96 kPa | 55.42 ± 0.41 | –
[3], 79.92 kPa | 58.59 ± 0.41 | –
[3], 89.99 kPa | 61.58 ± 0.41 | –
[3], 100 kPa | 64.18 ± 0.41 | –

Conditions | refractive index
[2] | 1.32643 ± 0.0007

C1CCCCC1 [cyclohexane]
Conditions | mass density [kg/m3]
[1], 293.15 K | 778.414 ± 0.61

Conditions | refractive index
[2] | 1.42655 ± 0.0008

CCO [ethanol]
Conditions | Boiling temperature at pressure P [°C] | mass density [kg/m3]
[1], 298.15 K | – | 784.89 ± 0.16
[3], 17.99 kPa | 40.00 ± 0.51 | –
[3], 20 kPa | 42.23 ± 0.51 | –
[3], 29.6 kPa | 50.00 ± 0.45 | –
[3], 40 kPa | 56.49 ± 0.43 | –
[3], 47.01 kPa | 60.00 ± 0.43 | –
[3], 49.99 kPa | 61.37 ± 0.42 | –
[3], 59.93 kPa | 65.51 ± 0.42 | –
[3], 69.95 kPa | 69.13 ± 0.41 | –
[3], 79.91 kPa | 72.33 ± 0.41 | –
[3], 89.92 kPa | 75.16 ± 0.41 | –
[3], 100.07 kPa | 77.90 ± 0.41 | –

Conditions | refractive index
[2] | 1.35929 ± 0.0007
